Measurements reported in patent US7566808B2, “Management of ophthalmologic disorders, including macular degeneration” (President and Fellows of Harvard College, priority 2004, dated 2009).

Assays:
purified bovine mRPE65 = molecular target: T1, purified bovine mRPE65 (Bos taurus, UniProt Q28175); test: Fluorescence titration of mRPE65 with TDT and TDH; settings: 0.952 μM mRPE65, phosphate buffered saline pH 7.4, 1% CHAPS; read-out: KD for binding to mRPE65
T1 construct: mRPE65 was extracted and purified from the bovine eye cups using a procedure described earlier; tissue W. L. Lawson Co; host or cells: bovine eye cups (retinal pigment epithelium)
Description: Purification of mRPE65: mRPE65 was extracted and purified from the bovine eye cups using a procedure described earlier. Protein purity was established by silver staining and Western blotting (1:4000 primary antibody—1 h at room temperature and 1:4000 secondary antibody 0.5 h at room temperature). Buffers were changed by dialysis in the request buffer overnight in a slide-a-lyser™ cassette from Pierce (10 KDa MWCO). RPE65 solutions were concentrated with an Amicon Ultra™ centrifugal filtration device (30 KDa-cutoff) from Millipore Corp. The final protein solution contained 100 mM phosphate buffered saline (150 mM NaCl) pH 7.4 and 1% CHAPSO. The protein concentration was measured by a modified Lowry method using the Bio-Rad DC protein assay protocol.
Fluorescence binding assays: RPE65 in PBS, 1% CHAPS, pH 7.4 was used in the fluorometric titration studies. All titrations were performed at 25° C. The samples in PBS buffer were excited at 280 nm and the fluorescence was scanned from 300 to 500 nm. Fluorescence measurements, using 450 μL quartz cuvettes with a 0.5 cm path length, were made at 25° C. on a Jobin Yvon Instruments, Fluoromax 2 employing the right-angle detection method.
The fluorescence of the protein solution was measured after equilibrating it at 25° C. for 10 min. […] The binding constant (KD) was calculated from the fluorescence intensity as described before (17,19). […]

Abca4−/− mice = test: A2E accumulation after chronic treatment of Abca4−/− mice; type: in vivo; settings: 50 mg/kg i.p. twice a week for 2 months
Description: Tissue extraction and HPLC analysis: Posterior eye cups were pooled and homogenized in PBS using a tissue grinder. An equal volume of a mixture of chloroform/methanol (2:1) was added and the sample was extracted three times. To remove insoluble material, extracts were filtered through cotton and passed through a reversed phase (C18 Sep-Pak, Millipore) cartridge with 0.1% TFA in methanol. After removing solvent by evaporation under gas, the extract was dissolved in methanol containing 0.1% TFA, for HPLC analysis. For quantification of A2E, a Waters Alliance 2695 HPLC was employed with a Atlantis® dC18 column (Waters, 4.6×150 mm, 3 μm) and the following gradient of acetonitrile in water (containing 0.1% trifluoroacetic acid): 90-100% (0-10 min), 100% acetonitrile (10-20 min), and a flow rate of 0.8 mL/min with monitoring at 430 nm. The injection volume was 10 μL. […] Levels of A2E and iso-A2E were determined by reference to an external standard of HPLC-purified A2E/iso-A2E. […]
As shown in FIGS. 29A-D, both compounds, but especially TDT, were highly efficient in lowering A2E accumulation. FIGS. 29A-D show quantitation of A2E and iso-A2E in eye cups of Abcr −/− mice. […] FIG>29D: A2E/iso-A2E quantitation from integrated peak areas normalized to external standards. Values expressed as picomoles per eye and are based on single samples obtained by pooling 4 eyes.

[1] = Tolerability in treated animals; type: in vivo; settings: even when administered every 48 h
Description: With respect to the pharmacology of the isoprenoid mRPE65 antagonists, it should be noted that the effects of both TDT and TDH are substantially more persistent than with 13-RA, probably because they are more hydrophobic than the retinoic acids. An increase in hydrophobicity tends to slow down rates of elimination of drugs.

T1 sequence (Q28175 whole entry): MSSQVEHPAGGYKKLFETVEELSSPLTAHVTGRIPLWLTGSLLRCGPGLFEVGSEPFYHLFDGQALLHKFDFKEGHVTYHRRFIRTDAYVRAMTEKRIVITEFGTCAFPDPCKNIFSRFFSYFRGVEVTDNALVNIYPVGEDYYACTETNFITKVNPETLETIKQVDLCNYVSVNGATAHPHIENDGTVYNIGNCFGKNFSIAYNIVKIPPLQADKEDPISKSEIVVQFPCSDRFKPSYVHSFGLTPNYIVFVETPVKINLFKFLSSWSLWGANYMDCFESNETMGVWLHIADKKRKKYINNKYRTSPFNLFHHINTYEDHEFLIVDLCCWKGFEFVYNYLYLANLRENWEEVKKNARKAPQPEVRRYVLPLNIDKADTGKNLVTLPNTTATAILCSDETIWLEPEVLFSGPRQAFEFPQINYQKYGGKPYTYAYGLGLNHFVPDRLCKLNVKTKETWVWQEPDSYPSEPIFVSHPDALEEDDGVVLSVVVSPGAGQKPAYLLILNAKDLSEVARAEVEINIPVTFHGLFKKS

| SMILES | Kd (purified bovine mRPE65) | effect on A2E accumulation (Abca4−/− mice) | tolerability / signs of toxicity [1] |
| --- | --- | --- | --- |
| CCCCCCCCCCCCCCCCNC(=O)/C=C(\C)CC/C=C(\C)CCC=C(C)C [TDH, 3,7,11-Trimethyl-dodeca-2,6,10-trienoic acid hexadecylamide] | 96 ± 14 nM | profound effects on limiting A2E accumulation | no obvious signs of toxicity and/or distress |
| CCCCCCCCCCC(=O)/C=C(\C)CC/C=C(\C)CCC=C(C)C [TDT, 13,17,21-Trimethyl-docosa-12,16,20-trien-11-one] | 58 ± 5 nM | profound effects on limiting A2E accumulation | no obvious signs of toxicity and/or distress |
